Results taken from PMC7501296, “Rapid and direct control of target protein levels with VHL-recruiting dTAG molecules” (Nature Communications, 2020).
Values joined by “and” are separate entries in the source; they are usually repeats but may differ in a detail not shown here. Identical values can stand only once.

How the values were obtained:
FKBP12^F36V-EWS/FLI = experiment: Immunoblot of EWS502 FKBP12F36V-EWS/FLI; EWS/FLI-/- cells; format: cell-based
Procedure: (§1) To generate 293T^WT FKBP12^F36V-KRAS^G12V and 293T^VHL−/− FKBP12^F36V-KRAS^G12V cells, concentrated lentiviral supernatants[6] were applied to 293T^WT and 293T^VHL−/− cells[33] in the presence of 4 µg mL^−1 polybrene and transduced cell lines were selected with 2 µg mL^−1 puromycin. To generate EWS502 FKBP12^F36V-GFP cells, EWS502 cells were transduced with pLEX_305-dTAG-GFP lentiviral supernatant and selected with 1 µg mL^−1 puromycin. To generate EWS502 FKBP12^F36V-EWS/FLI; EWS/FLI^−/− cells, EWS502 cells were co-transduced with pLEX_305-dTAG-EWS/FLI and lentiCRISPR v2-Blast-sgFLI_Ex9 lentiviral supernatants. Cells were then selected with both 1 µg mL^−1 puromycin (pLEX_305-dTAG-EWS/FLI) and 5 µg mL^−1 blasticidin (lentiCRISPR v2-Blast-sgFLI_Ex9). Knockout of endogenous EWS/FLI and the expression of exogenous FKBP12^F36V-EWS/FLI were confirmed by immunoblot and pooled transduced cell populations were employed for this study. PATU-8902 LACZ-FKBP12^F36V and FKBP12^F36V-KRAS^G12V; KRAS^−/− clones were also employed in this study.
PATU-8902 LACZ-FKBP12^F36V and FKBP12^F36V-KRAS^G12V; KRAS^−/− cells and 293T cells were lysed with RIPA buffer supplemented with cOmplete protease inhibitors (Roche), PhosSTOP phosphatase inhibitors (Roche), and 0.1% benzonase (Novagen). Proteins were separated using NuPAGE Bolt^TM Bis–Tris gels (Thermo Fisher Scientific) and transferred to nitrocellulose membranes, which were blocked with Odyssey Blocking Buffer (LI-COR) and incubated with primary antibodies overnight. Membranes were washed three times with TBS-T, incubated with the appropriate fluorescently labeled infrared secondary antibodies, washed again three times with TBS-T, and assessed using an Odyssey CLx Imager (LI-COR)[6],[15]. EWS502 cells were lysed with Cell Lysis Buffer (Cell Signaling Technology) supplemented with cOmplete protease inhibitors (Roche). Proteins were separated using SDS-PAGE gels and transferred to PVDF membranes, which were blocked with 5% milk in TBS-T and incubated with primary antibodies overnight. Membranes were washed five times with TBS-T, incubated with the appropriate horseradish peroxidase-conjugated secondary antibodies, washed again five times with TBS-T, and imaged. […]

MED14 = tested on: MED14; parameters: method as in PMID 32483291; settings: HCT116 cells; cited from earlier work
[1] = tested on: EWS502 FKBP12^F36V-GFP cells; experiment: Relative growth of EWS502 FKBP12F36V-GFP cells (CellTiter-Glo); format: cell-based
Procedure: (§2) Cell viability was assayed in 2D-adherent or ultra-low adherent 3D-spheroids using CellTiter-Glo (Promega)[6],[15]. Luminescence was measured on an Envision 2104 plate reader (PerkinElmer) and Fluostar Omega Reader (BMG Labtech) and data was analyzed using GraphPad PRISM v8. Synergy assessments were performed using CellTiter-Glo (Promega) with the following modifications to the protocol described in the ref. [34]. In brief, EWS502 cells were plated at 1000 cells per well in 50 µL of appropriate media in 384-well white culture plates (Corning) allowed to adhere overnight, and 100 nL of compounds were added using a Janus Workstation pin tool (PerkinElmer) for 72 h. Cell viability was measured by addition of 10 µL of CellTiter-glo (Promega), followed by incubation for 15 minutes at room temperature. Luminescence was measured on an Envision 2104 plate reader (PerkinElmer) and data was analyzed using GraphPad PRISM v8.

[2] = tested on: EWS502 FKBP12^F36V-EWS/FLI; EWS/FLI^−/− cells; experiment: Relative growth of EWS502 FKBP12F36V-EWS/FLI; EWS/FLI-/- cells (CellTiter-Glo); format: cell-based; settings: for Relative growth (luminescence values relative to day 0): EWS502 FKBP12F36V-EWS/FLI, EWS/FLI-/-; for Antiproliferation (relative growth): replicate values; for Antiproliferative effects upon EWS/FLI degradation: longer time-points
Procedure: as §2

FKBP12^F36V-GFP = molecular target: T1, FKBP12^F36V-GFP (Homo sapiens, UniProt P62942, F37V); experiment: Immunoblot of EWS502 FKBP12F36V-GFP cells; format: cell-based; settings: 24 h
T1 construct: expressed in transfected cells; host or cells: EWS502 (lentiviral pLEX_305-dTAG-GFP)
Procedure: as §1, with “PATU-8902 LACZ-FKBP12^F36V and FKBP12^F36V-KRAS^G12V; KRAS^−/− clones were also employed in this study.” left out
PATU-8902 LACZ-FKBP12^F36V and FKBP12^F36V-KRAS^G12V; KRAS^−/− cells and 293T cells were lysed with RIPA buffer supplemented with cOmplete protease inhibitors (Roche), PhosSTOP phosphatase inhibitors (Roche), and 0.1% benzonase (Novagen). […] Membranes were washed three times with TBS-T, incubated with the appropriate fluorescently labeled infrared secondary antibodies, washed again three times with TBS-T, and assessed using an Odyssey CLx Imager (LI-COR)[6],[15]. […]

T1 sequence (P62942 2-108 F37V limits assumed): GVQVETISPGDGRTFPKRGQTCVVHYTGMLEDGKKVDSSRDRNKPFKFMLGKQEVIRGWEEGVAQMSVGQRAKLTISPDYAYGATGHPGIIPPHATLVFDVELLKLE

SMILES	FKBP12F36V-EWS/FLI degradation, immunoblot (FKBP12^F36V-EWS/FLI; EWS502 FKBP12F36V-EWS/FLI, EWS/FLI-/- cells)	Time of treatment at which FKBP12F36V-EWS/FLI degradation was evident (FKBP12^F36V-EWS/FLI; EWS502 cells) [h]	Degradation of MED14 (MED14)	Relative growth (luminescence values relative to day 0) ([1]; day 0, technical replicates)	Relative growth (luminescence values relative to day 0) ([1]; day 3, technical replicates)	Relative growth (luminescence values relative to day 0) ([1]; day 5, technical replicates)	Relative growth (luminescence values relative to day 0) ([1]; day 7, technical replicates)	Relative growth (luminescence values relative to day 0) ([2]; day 0, technical replicates)	Relative growth (luminescence values relative to day 0) ([2]; day 3, technical replicates)	Relative growth (luminescence values relative to day 0) ([2]; day 5, technical replicates)	Relative growth (luminescence values relative to day 0) ([2]; day 7, technical replicates)	Antiproliferation (relative growth) ([2]; Time 0 days)	Antiproliferation (relative growth) ([2]; Time 3 days)	Antiproliferation (relative growth) ([2]; Time 5 days)	Antiproliferation (relative growth) ([2]; Time 7 days)	Antiproliferative effects upon EWS/FLI degradation [2]	FKBP12F36V-GFP degradation, immunoblot (FKBP12^F36V-GFP)
CC[C@H](C(=O)N1CCCC[C@H]1C(=O)O[C@H](CCc1ccc(OC)c(OC)c1)c1ccccc1OCC(=O)NCCCCCCC(=O)N[C@H](C(=O)N1C[C@H](O)C[C@H]1C(=O)N[C@@H](C)c1ccc(-c2scnc2C)cc1)C(C)(C)C)c1cc(OC)c(OC)c(OC)c1 [dTAG^V-1]	only susceptible to degradation upon treatment with dTAG^V-1	≤ 1	effective degradation	1.01 and 0.9846 and 0.9416 and 1.081 and 0.9895 and 0.8796 and 1.056 and 1.058	7.436 and 7.522 and 7.571 and 8.146 and 7.791 and 7.539 and 7.5229 and 8.295	12.9905 and 13.8226 (2×) and 13.4717 and 14.0465 and 14.5379 and 14.3196 and 15.9343	19.3543 and 18.2942 and 18.0829 and 20.64 and 18.2038 and 18.0695 and 17.6427 and 20.3483	0.8696 and 1.038 (2×) and 1.097 and 0.9086 and 1.006 and 0.975 and 1.069	3.17 and 3.081 and 3.35 and 3.515 and 3.02 and 3.212 and 3.235 and 3.093	3.571 and 3.881 and 3.894 and 3.809 and 3.6579 and 3.634 and 3.713 and 3.678	4.1 and 3.846 and 4.015 and 4.459 and 4.182 and 3.984 and 3.963 and 4.228	1.031 and 1.006 and 0.9491 and 0.9896 and 1.023 and 0.9889 and 1.015 and 0.9988	3.562 and 3.604 and 3.659 and 3.498 and 3.439 and 4 and 3.9346 and 3.855	4.651 and 4.613 and 4.429 and 4.423 and 4.852 and 4.574 and 4.874 and 4.602	4.558 and 4.146 and 4.393 and 4.598 and 4.588 and 4.347 and 4.317 and 4.895	Potent antiproliferative effects	effectively degraded
CC[C@H](C(=O)N1CCCC[C@H]1C(=O)O[C@H](CCc1ccc(OC)c(OC)c1)c1ccccc1OCC(=O)NCCCCCCOc1cccc2c1C(=O)N(C1CCC(=O)NC1=O)C2=O)c1cc(OC)c(OC)c(OC)c1 (stereo partly shown) [dTAG-13]	–	–	–	–	–	–	–	–	–	–	–	–	–	–	–	–	effectively degraded
CCC(C(=O)N1CCCCC1C(=O)OC(CCc1ccc(OC)c(OC)c1)c1ccccc1OCC(=O)NCCCCCCC(=O)NC(C(=O)N1CC(O)CC1C(=O)NC(C)c1ccc(-c2scnc2C)cc1)C(C)(C)C)c1cc(OC)c(OC)c(OC)c1 (stereo not shown) [dTAG^V-1-NEG]	–	–	–	0.9807 and 0.9337 and 1.074 and 0.9661 and 0.9369 and 1.05 and 0.936 and 1.123	8.012 and 8.414 and 8.126 and 8.231 and 8.041 and 7.9927 and 8.641 and 7.789	16.2325 and 15.4561 and 17.0235 and 15.0335 and 14.9405 and 13.797 and 14.8812 and 15.4178	19.7372 and 19.9296 and 22.6222 and 21.4195 and 20.5619 and 20.5847 and 22.7467 and 21.3128	0.9945 and 0.95 and 1.001 and 0.9766 and 1.051 and 1.053 and 1.003 and 0.9709	5.114 and 5.468 and 5.612 and 5.24 and 5.293 and 5.6444 and 5.751 and 5.436	9.983 and 9.4493 and 9.47 and 9.104 and 8.952 and 10.1487 and 8.526 and 9.042	11.0059 and 11.6763 and 12.0315 and 12.3084 and 11.8629 and 11.627 and 12.7076 and 12.9032	0.9369 and 1.039 and 1.049 and 1.03 and 0.9405 and 1.006 and 0.9678 and 1.0315	6.723 and 6.994 and 7.2 and 7.295 and 6.686 and 6.901 and 6.814 and 7.587	15.6789 and 14.8903 and 15.2182 and 14.1831 and 15.4702 and 12.9669 and 13.0283 and 13.2307	17.0897 and 17.8515 and 16.9942 and 16.7495 and 17.7706 and 16.0177 and 15.7257 and 18.5474	absent	–
